Assay results taken from ChEMBL document CHEMBL5523703, “Modulators for palmitoylation of proteins and small molecules” (Eur J Med Chem, 2024).

Legend:
[1] = Inhibition of N-terminal 6His-tagged human TEAD1 YAP-binding domain (219 to 435 residues) expressed in Escherichia coli BL21 (DE3)
[2] = target: Serine palmitoyltransferase small subunit B (Homo sapiens, UniProt Q8NFR3); assay: Inhibition of SPTSSB (unknown origin) expressed in HEK293T cells; format: cell-based
[3] = target: T1, Carnitine O-palmitoyltransferase 1, liver isoform (Homo sapiens, UniProt P50416); assay: Inhibition of CPT1A (unknown origin)
T1 sequence (P50416 whole entry): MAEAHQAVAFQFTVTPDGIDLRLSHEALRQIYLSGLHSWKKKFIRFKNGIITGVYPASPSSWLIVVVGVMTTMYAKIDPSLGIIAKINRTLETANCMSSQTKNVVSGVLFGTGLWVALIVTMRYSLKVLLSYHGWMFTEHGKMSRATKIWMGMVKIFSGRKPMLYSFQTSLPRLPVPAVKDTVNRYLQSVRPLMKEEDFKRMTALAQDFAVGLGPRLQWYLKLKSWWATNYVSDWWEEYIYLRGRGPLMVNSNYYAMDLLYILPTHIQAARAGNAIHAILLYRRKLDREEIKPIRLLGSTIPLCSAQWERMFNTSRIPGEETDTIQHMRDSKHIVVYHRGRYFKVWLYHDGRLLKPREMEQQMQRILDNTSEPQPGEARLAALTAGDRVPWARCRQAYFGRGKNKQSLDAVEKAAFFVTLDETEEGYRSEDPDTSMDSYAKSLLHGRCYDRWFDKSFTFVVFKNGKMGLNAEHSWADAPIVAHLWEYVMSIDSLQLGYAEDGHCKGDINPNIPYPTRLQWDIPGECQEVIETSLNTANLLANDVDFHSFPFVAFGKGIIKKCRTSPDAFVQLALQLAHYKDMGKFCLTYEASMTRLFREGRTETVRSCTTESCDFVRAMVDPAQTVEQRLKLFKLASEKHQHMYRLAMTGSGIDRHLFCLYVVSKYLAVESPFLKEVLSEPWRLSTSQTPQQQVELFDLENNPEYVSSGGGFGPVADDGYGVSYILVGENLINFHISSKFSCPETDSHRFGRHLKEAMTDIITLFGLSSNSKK

[4] = target: T2, Carnitine O-palmitoyltransferase 1, muscle isoform (Homo sapiens, UniProt Q92523); assay: Inhibition of CPT1B (unknown origin)
T2 sequence (Q92523 whole entry): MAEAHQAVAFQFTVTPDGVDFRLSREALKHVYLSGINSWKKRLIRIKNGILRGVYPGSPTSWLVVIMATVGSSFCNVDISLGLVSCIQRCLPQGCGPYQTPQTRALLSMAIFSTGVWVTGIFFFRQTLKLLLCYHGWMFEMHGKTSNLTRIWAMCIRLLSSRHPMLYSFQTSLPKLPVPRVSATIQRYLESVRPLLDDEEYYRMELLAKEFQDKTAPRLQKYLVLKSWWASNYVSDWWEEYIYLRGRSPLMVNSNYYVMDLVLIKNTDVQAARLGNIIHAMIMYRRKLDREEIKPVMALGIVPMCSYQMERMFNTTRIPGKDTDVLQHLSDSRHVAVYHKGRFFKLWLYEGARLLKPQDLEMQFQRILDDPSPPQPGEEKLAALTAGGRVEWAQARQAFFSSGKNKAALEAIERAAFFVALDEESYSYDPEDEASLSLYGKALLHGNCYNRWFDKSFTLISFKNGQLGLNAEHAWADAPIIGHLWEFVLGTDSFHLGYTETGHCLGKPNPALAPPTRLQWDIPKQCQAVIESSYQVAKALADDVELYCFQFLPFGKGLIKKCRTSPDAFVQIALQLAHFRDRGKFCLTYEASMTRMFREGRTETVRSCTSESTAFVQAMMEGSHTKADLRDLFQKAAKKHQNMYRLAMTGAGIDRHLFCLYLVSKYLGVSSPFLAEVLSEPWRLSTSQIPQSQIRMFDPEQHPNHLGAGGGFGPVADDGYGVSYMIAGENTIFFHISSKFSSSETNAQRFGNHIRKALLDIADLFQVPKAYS

[5] = target: Protein-cysteine N-palmitoyltransferase HHAT (Homo sapiens, UniProt Q5VTY9); assay: Inhibition of His-tagged HHAT (unknown origin) transfected in HEK293FT cells; format: cell-based
[6] = target: Carnitine O-palmitoyltransferase 1, liver isoform (Homo sapiens) (UniProt P50416); assay: Inhibition of CPT1 (unknown origin) at 10 uM relative to control
[7] = target: T3, Transcriptional enhancer factor TEF-1 (Homo sapiens, UniProt P28347); assay: Inhibition of N-terminal His-tagged human TEAD1 expressed in Escherichia coli BL21 (DE3) (209 to 424 residues) by affinity chromatography analysis
NCI-H226 [8] = assay: Antitumor activity against human NCI-H226 cells xenografted in CDX mouse model assessed as reduction in tumor growth at 30 mg/kg relative to control; format: functional; design: scale not given: the % may be the effect or the level left
NCI-H226 [9] = assay: Antitumor activity against human NCI-H226 cells xenografted in CDX mouse model assessed as reduction in tumor growth at 75 mg/kg relative to control; format: functional; design: scale not given: the % may be the effect or the level left
[10] = Inhibition of Candida albicans serine palmitoyltransferase
[11] = target: Palmitoyltransferase ZDHHC9 (Homo sapiens, UniProt Q9Y397); assay: Binding affinity to ZDHHC9 (unknown origin) assessed as inhibition constant
[12] = target: Carnitine O-palmitoyltransferase 2, mitochondrial (Rattus norvegicus, UniProt P18886); assay: Inhibition of rat CPT2
[13] = target: T1, Carnitine O-palmitoyltransferase 1, liver isoform; assay: Inhibition of CPT1 (unknown origin)
CCF-STTG1 = assay: Antiproliferative activity against human CCF-STTG1 cells assessed as reduction in cell growth; format: functional, cell-based
[14] = Binding affinity to SPT (unknown origin) assessed as inhibition constant; design: species or system Homo sapiens
[15] = target: T4, Carnitine O-palmitoyltransferase 1, liver isoform (Rattus norvegicus, UniProt P32198); assay: Inhibition of rat hepatocytes CPT1A; format: cell-based, Hepatocyte
T4 sequence (P32198 whole entry): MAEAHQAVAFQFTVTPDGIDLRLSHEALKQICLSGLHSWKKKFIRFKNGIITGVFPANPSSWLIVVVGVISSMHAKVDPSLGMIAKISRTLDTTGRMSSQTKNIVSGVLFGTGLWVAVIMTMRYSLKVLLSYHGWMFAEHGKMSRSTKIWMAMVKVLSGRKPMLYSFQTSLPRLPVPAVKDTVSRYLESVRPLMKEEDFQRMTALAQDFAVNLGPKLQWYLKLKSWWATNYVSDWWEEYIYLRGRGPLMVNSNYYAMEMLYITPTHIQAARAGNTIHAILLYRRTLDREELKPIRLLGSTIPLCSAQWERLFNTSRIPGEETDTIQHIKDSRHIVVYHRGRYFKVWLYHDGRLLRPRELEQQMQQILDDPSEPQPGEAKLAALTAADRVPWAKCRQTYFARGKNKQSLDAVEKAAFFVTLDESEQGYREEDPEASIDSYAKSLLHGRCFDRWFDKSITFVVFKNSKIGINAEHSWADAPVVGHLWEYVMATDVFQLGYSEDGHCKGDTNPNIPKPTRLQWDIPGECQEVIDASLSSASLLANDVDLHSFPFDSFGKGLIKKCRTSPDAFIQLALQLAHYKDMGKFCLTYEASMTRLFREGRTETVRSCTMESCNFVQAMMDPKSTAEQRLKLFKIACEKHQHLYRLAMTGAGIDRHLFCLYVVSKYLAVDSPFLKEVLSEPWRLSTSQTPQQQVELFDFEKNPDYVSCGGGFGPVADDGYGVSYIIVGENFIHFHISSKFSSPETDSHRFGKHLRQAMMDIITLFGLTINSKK

[16] = target: T2, Carnitine O-palmitoyltransferase 1, muscle isoform; assay: Inhibition of CPT1B (unknown origin) in KB cells; format: cell-based
[17] = target: Palmitoyltransferase ZDHHC3 (Homo sapiens, UniProt Q9NYG2); assay: Inhibition of ZDHHC3 (unknown origin)
[18] = target: Palmitoyltransferase ZDHHC7 (Homo sapiens, UniProt Q9NXF8); assay: Inhibition of ZDHHC7 (unknown origin)
[19] = target: T3, Transcriptional enhancer factor TEF-1; assay: Inhibition of N-terminal 6His-tagged human TEAD1 YAP-binding domain (209 to 426 residues) expressed in Escherichia coli BL21 (DE3)
[20] = target: Non-structural protein 4b (Hepacivirus hominis, UniProt F5B4I0); assay: Inhibition of Hepatitis C virus genotype 1a NS4B
Sequence of Non-structural protein 4b (F5B4I0 whole entry): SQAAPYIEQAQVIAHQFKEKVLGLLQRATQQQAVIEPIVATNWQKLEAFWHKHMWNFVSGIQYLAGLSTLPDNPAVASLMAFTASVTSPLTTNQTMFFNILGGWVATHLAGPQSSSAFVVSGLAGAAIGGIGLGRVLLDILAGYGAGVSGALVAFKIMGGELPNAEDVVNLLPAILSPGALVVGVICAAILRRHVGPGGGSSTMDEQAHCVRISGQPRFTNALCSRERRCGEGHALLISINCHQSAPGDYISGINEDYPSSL

T3 sequence (P28347 whole entry, the tested form may be a part): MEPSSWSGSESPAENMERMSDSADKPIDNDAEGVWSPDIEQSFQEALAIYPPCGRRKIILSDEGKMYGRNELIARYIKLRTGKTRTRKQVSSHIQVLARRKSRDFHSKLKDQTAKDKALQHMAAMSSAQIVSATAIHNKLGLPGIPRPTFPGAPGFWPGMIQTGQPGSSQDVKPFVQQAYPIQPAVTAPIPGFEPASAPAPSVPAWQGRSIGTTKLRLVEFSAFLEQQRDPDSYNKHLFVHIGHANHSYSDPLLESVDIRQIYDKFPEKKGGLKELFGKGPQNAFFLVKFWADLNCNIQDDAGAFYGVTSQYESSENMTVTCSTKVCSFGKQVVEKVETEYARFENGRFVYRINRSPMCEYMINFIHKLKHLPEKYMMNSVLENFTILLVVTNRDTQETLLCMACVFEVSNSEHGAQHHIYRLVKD
Sequence of Palmitoyltransferase ZDHHC7 (Q9NXF8 whole entry, the tested form may be a part): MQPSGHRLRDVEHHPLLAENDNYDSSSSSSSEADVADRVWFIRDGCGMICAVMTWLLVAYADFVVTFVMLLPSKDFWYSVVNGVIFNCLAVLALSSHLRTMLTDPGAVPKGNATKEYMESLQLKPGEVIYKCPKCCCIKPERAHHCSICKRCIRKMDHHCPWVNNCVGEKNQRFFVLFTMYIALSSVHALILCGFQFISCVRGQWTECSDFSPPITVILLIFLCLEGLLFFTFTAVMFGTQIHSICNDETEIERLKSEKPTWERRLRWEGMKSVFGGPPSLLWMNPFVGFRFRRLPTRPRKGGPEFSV
Sequence of Palmitoyltransferase ZDHHC3 (Q9NYG2 whole entry): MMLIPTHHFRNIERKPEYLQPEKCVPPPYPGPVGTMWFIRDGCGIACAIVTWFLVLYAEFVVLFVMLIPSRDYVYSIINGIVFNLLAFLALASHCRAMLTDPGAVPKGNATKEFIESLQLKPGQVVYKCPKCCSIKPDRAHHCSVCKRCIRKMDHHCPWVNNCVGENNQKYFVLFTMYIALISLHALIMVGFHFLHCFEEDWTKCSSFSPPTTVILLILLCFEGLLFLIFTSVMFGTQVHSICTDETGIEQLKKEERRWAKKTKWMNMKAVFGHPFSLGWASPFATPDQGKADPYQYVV
Sequence of Protein-cysteine N-palmitoyltransferase HHAT (Q5VTY9 whole entry, canonical isoform): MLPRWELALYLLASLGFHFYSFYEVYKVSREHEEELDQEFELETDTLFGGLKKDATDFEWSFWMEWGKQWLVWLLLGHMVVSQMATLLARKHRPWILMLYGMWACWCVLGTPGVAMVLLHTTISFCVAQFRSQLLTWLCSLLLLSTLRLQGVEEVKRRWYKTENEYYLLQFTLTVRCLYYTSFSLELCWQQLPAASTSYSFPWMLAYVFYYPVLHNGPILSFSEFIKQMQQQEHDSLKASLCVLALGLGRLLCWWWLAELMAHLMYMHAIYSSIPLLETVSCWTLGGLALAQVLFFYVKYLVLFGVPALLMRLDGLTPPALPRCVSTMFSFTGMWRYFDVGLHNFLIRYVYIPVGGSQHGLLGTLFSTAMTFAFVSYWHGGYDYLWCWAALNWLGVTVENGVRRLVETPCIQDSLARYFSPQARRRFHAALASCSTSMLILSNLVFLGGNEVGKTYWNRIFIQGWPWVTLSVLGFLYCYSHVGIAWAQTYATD
Sequence of Carnitine O-palmitoyltransferase 2, mitochondrial (P18886 whole entry, canonical isoform): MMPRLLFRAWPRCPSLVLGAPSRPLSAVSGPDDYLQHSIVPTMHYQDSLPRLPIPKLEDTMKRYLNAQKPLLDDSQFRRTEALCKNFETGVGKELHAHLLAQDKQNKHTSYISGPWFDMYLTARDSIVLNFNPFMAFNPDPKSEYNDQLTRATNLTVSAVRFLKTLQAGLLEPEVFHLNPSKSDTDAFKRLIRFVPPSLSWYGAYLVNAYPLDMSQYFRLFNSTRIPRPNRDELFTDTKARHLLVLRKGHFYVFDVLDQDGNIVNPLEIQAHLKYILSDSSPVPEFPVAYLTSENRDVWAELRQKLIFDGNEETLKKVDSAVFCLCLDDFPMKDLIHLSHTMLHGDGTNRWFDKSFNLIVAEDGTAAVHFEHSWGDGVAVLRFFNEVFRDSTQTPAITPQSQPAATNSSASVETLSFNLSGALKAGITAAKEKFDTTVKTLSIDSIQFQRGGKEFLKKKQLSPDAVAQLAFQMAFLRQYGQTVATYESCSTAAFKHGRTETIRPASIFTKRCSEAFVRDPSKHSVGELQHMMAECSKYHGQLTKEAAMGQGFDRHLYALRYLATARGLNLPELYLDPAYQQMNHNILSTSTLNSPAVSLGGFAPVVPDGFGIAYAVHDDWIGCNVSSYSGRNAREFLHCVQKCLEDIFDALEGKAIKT
Sequence of Serine palmitoyltransferase small subunit B (Q8NFR3 whole entry, canonical isoform): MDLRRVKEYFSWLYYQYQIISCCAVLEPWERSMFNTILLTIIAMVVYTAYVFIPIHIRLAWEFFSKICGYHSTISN
Sequence of Palmitoyltransferase ZDHHC9 (Q9Y397 whole entry): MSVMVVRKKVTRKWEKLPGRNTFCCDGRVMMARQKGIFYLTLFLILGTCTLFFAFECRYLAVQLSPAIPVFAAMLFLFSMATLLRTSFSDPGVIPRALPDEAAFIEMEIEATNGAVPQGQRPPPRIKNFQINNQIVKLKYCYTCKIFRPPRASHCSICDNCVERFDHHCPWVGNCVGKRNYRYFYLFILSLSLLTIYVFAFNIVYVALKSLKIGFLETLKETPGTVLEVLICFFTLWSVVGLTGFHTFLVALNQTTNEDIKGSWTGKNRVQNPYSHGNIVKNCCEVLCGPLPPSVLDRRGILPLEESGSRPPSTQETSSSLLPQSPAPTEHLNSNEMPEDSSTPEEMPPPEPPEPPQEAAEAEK

C=CC(=O)N1CCCN(CCCOCc2ccccc2)C1
IC50 [1]: 160 nM

CC(C)=CCC[C@]1(C)C=Cc2c(O)c3c(c(CC=C(C)C)c2O1)O[C@]12C(=C[C@@H]4C[C@H]1C(C)(C)O[C@@]2(C/C=C(/C)C(=O)O)C4=O)C3=O [GAMBOGIC ACID]
IC50 [2]: 2180 nM

CCCCCCOc1cccc(OCCCCNC(=O)N[C@H](CC(=O)[O-])C[N+](C)(C)C)c1
IC50 [3]: 130 nM
IC50 [4]: 5440 nM

C=CCNCC(=O)N1CCc2sccc2C1COc1ccc(Cl)c(C)c1 (stereo not drawn)
IC50 [5]: 180 nM

CCCCCCCCCCCCCC[C@]1(C(=O)O)CO1
inhibition [6]: 66%

C=C(F)C(=O)N1C[C@@H](Nc2ncccn2)[C@H](OCc2ccc(C(F)(F)F)cc2)C1
IC50 [7]: 11 nM
Activity (NCI-H226 [8]): 54%
Activity (NCI-H226 [9]): 68%

CCCCCCCC(=O)CCCCCC/C=C/[C@H](C(=O)N[C@@H](Cc1ccc(O)cc1)C(=O)O)[C@@](O)(CC(=O)O)C(=O)O
IC50 [10]: 22 nM

CC(C)Cc1ccc(C(C)CN2CCN(CCCC[C@H]3CNCCN3CCc3cc(C(F)(F)F)cc(C(F)(F)F)c3)C[C@@H]2Cc2ccc(O)cc2)cc1 (stereo partly drawn)
Ki [11]: 66000 nM

N[C@H](C(=O)O)c1ccc(O)cc1 [OXFENICINE]
IC50 [12]: 79000 nM
IC50 [13]: 11000 nM

C/C(=C\CC12OC(C)(C)C3CC(C=C4C(=O)c5c(O)cccc5OC431)C2=O)COC(=O)c1cccnc1 (stereo not drawn)
IC50 (CCF-STTG1): 2290 nM
Ki [14]: 1700 nM

C=CC(=O)N1C[C@@H](n2cc(C3CCOCC3)nn2)[C@H](OCc2ccc(C(F)(F)F)cc2)C1
IC50 [7]: 45 nM

COc1ccc(Cl)cc1S(=O)(=O)N1CCc2ccc(C(=O)Nc3ccc(C(=O)O)cc3)cc21
IC50 [15]: 1090 nM
IC50 [16]: 21 nM

CCCCCCCCCCCCCCC(Br)C(=O)SCCNC(C)=O (stereo not drawn)
IC50 [17]: ~50000 nM
IC50 [18]: 4400 nM

C=CC(=O)N1CCC(CCOc2ccccc2)CC1
IC50 [1]: 580 nM
IC50 [19]: 610 nM

CC#CCOc1ccc(C[C@H](NC(=O)[C@@H](/C=C/CCCCCCC(=O)CCCCCCC)[C@@](O)(CC(C)=O)C(=O)O)C(=O)O)cc1
IC50 [20]: 18.9 nM
